Experimental data taken from ChEMBL document CHEMBL4011591, “Discovery and pharmacological evaluation of a novel series of adamantyl cyanoguanidines as P2X7 receptor antagonists” (Eur J Med Chem, 2017).
pIC50: −log10 of the molar value. Calls of active or inactive are those of the source. No cut-off for these calls is given here.

Tests used:
[1] = biological target: T1, P2X purinoceptor 7 (Homo sapiens, UniProt Q99572); assay: Antagonist activity at P2X7 receptor in human THP1 cells assessed as inhibition of BzATP-induced YO-PRO-1 Iodide uptake measured every 30 secs for 1 hr by fluorescence assay; format: cell-based
T1 sequence (Q99572 whole entry): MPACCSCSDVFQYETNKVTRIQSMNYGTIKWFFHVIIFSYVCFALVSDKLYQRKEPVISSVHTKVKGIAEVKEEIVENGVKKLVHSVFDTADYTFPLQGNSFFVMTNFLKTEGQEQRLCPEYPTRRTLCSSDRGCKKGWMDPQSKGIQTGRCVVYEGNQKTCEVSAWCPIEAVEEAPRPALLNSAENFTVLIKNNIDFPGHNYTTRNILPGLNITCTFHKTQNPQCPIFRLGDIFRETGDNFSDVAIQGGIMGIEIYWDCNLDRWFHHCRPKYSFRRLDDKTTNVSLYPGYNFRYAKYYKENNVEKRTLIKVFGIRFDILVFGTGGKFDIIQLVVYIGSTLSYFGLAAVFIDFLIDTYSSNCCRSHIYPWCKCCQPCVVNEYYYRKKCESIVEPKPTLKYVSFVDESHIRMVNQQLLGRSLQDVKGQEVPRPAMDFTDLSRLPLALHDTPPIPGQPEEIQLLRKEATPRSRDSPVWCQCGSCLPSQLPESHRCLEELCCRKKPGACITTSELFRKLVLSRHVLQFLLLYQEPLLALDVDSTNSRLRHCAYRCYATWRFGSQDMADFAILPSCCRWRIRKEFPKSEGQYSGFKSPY

[2] = Half life in CD-1 mouse at 3 mg/kg, po administered as single dose via gavage by HPLC-MS/MS; format: ADME, organism-based; conditions: in vivo
[3] = biological target: T1, P2X purinoceptor 7; assay: Antagonist activity at P2X7 receptor in LPS-stimulated human THP1 cells assessed as inhibition of LPS/BzATP-induced IL-1beta release preincubated for 30 mins followed by BzATP addition measured after 30 mins by ELISA
[4] = biological target: T2, P2X purinoceptor 7 (Homo sapiens) (UniProt Q99572); assay: Ratio of IC50 for P2X7 receptor in human THP1 cells assessed as inhibition of BzATP-induced YO-PRO-1 Iodide uptake to IC50 for P2X7 receptor in LPS-stimulated human THP1 cells assessed as inhibition of LPS/BzATP-induced IL-1beta release; format: cell-based
T2 sequence (whole entry): T1 sequence (Q99572 whole entry)

[5] = biological target: T3, P2X purinoceptor 7 (Rattus norvegicus, UniProt Q64663); assay: Antagonist activity at rat P2X7 receptor expressed in 1321N1 cells assessed as inhibition of agonist-induced calcium flux pretreated for 3 mins followed by BzATP addition after 3 mins measured every 1 sec for 60 secs and at 5 secs interval throughout testing by Flou-4-AM dye based FLIPR assay; format: cell-based
T3 sequence (Q64663 whole entry): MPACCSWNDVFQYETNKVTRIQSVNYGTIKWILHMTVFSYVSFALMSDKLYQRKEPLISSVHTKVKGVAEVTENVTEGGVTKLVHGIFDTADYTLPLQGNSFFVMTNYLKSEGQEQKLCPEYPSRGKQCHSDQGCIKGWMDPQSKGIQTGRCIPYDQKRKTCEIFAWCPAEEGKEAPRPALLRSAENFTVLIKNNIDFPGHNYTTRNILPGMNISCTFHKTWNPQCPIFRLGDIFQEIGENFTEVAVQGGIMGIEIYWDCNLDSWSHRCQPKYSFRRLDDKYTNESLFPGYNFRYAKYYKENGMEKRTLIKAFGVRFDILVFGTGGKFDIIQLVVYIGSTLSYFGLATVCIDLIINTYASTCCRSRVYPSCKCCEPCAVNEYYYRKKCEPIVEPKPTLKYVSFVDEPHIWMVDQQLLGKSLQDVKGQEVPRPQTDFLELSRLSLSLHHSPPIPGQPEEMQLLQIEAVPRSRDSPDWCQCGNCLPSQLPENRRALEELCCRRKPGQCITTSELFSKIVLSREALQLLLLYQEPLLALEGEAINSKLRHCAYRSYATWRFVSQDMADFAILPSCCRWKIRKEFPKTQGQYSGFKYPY

[6] = Half life in iv dosed rat; format: ADME, organism-based; conditions: in vivo
[7] = system: Rattus norvegicus; assay: Intrinsic clearance in iv dosed rat; format: ADME, organism-based; conditions: in vivo
[8] = Plasma concentration in Balb-C mouse at 2 mg/kg, iv administered as bolus dose measured after 76 mins by LC-MS analysis; format: ADME, organism-based
[9] = Plasma concentration in Balb-C mouse at 10 mg/kg, po measured after 21 mins by LC-MS analysis; format: ADME, organism-based
[10] = Cmax in Balb-C mouse at 1 mg/kg, iv administered as bolus dose by LC-MS method; format: ADME, organism-based; parameters: dose 1 mg/kg, route intravenous; conditions: in vivo
[11] = Plasma concentration in Balb-C mouse at 2 mg/kg, iv administered as bolus dose measured after 58 mins by LC-MS analysis; format: ADME, organism-based
[12] = system: Mus musculus; assay: Toxicity in Balb-C mouse assessed as abnormal behavior at 0.1 to 1 mg/kg, ip measured after 30 mins; format: organism-based; conditions: in vivo, 0.5 h
[13] = Volume of distribution in Balb-C mouse at 2 mg/kg, iv administered as bolus dose by LC-MS method; format: ADME, organism-based; conditions: in vivo
[14] = system: Mus musculus; assay: Toxicity in Balb-C mouse assessed as psychological changes at 0.1 to 1 mg/kg, ip measured after 48 hrs; format: organism-based; conditions: in vivo
[15] = MRT (0 to infinity) in Balb-C mouse at 2 mg/kg, iv administered as bolus dose by LC-MS method; format: ADME, organism-based; conditions: in vivo
[16] = Plasma concentration in Balb-C mouse at 2 mg/kg, iv administered as bolus dose measured after 15 mins by LC-MS analysis; format: ADME, organism-based
[17] = Plasma concentration in Balb-C mouse at 2 mg/kg, iv administered as bolus dose measured after 6 mins by LC-MS analysis; format: ADME, organism-based
[18] = Plasma concentration in Balb-C mouse at 2 mg/kg, iv administered as bolus dose measured after 5.8 mins by LC-MS analysis; format: ADME, organism-based
[19] = system: Mus musculus; assay: Toxicity in Balb-C mouse assessed as behavior changes at 0.1 to 1 mg/kg, ip measured after 48 hrs; format: organism-based; conditions: in vivo
[20] = Plasma concentration in Balb-C mouse at 10 mg/kg, po measured after 33 mins by LC-MS analysis; format: ADME, organism-based
[21] = Plasma concentration in Balb-C mouse at 10 mg/kg, po measured after 62 mins by LC-MS analysis; format: ADME, organism-based
[22] = Tmax in Balb-C mouse at 1 mg/kg, iv administered as bolus dose by LC-MS method; format: ADME, organism-based; conditions: in vivo
[23] = Plasma concentration in Balb-C mouse at 2 mg/kg, iv administered as bolus dose measured after 39 mins by LC-MS analysis; format: ADME, organism-based
[24] = Plasma concentration in Balb-C mouse at 2 mg/kg, iv administered as bolus dose measured after 10 mins by LC-MS analysis; format: ADME, organism-based
[25] = Clearance in Balb-C mouse at 2 mg/kg, iv administered as bolus dose by LC-MS method; format: ADME, organism-based; conditions: in vivo
[26] = Cmax in Balb-C mouse at 2 mg/kg, iv administered as bolus dose by LC-MS method; format: ADME, organism-based; parameters: dose 2 mg/kg, route intravenous; conditions: in vivo
[27] = Plasma concentration in Balb-C mouse at 2 mg/kg, iv administered as bolus dose measured after 23 mins by LC-MS analysis; format: ADME, organism-based
[28] = AUC (0 to infinity) in Balb-C mouse at 2 mg/kg, iv administered as bolus dose by LC-MS method; format: ADME, organism-based; parameters: dose 2 mg/kg, time infinity, route intravenous; conditions: in vivo
[29] = Plasma concentration in Balb-C mouse at 2 mg/kg, iv administered as bolus dose measured after 10.1 mins by LC-MS analysis; format: ADME, organism-based
[30] = system: Mus musculus; assay: Anti-depressant like activity in wild-type Balb-C mouse assessed as reduction in duration of immobility at 1 mg/kg, ip administered 15 to 30 mins prior to the testing measured on day 3 post dose by force swim test; format: functional, organism-based
[31] = Plasma concentration in Balb-C mouse at 2 mg/kg, iv administered as bolus dose measured after 2.2 mins by LC-MS analysis; format: ADME, organism-based
[32] = Plasma concentration in Balb-C mouse at 10 mg/kg, po measured after 30 mins by LC-MS analysis; format: ADME, organism-based
[33] = Plasma concentration in Balb-C mouse at 2 mg/kg, iv administered as bolus dose measured after 63 mins by LC-MS analysis; format: ADME, organism-based
[34] = Terminal elimination rate constant in Balb-C mouse at 2 mg/kg, iv administered as bolus dose by LC-MS method; format: ADME, organism-based; conditions: in vivo, read-out: LZ (converted)
[35] = Solubility of the compound in 8% ethanol/8% polysorbate80/84% saline formulation; format: physicochemical; conditions: buffer
[36] = AUC (0 to t) in Balb-C mouse at 2 mg/kg, iv administered as bolus dose by LC-MS method; format: ADME, organism-based; conditions: in vivo
[37] = Tmax in Balb-C mouse at 2 mg/kg, iv administered as bolus dose by LC-MS method; format: ADME, organism-based; conditions: in vivo
[38] = Plasma concentration in Balb-C mouse at 2 mg/kg, iv administered as bolus dose measured after 37 mins by LC-MS analysis; format: ADME, organism-based
[39] = Plasma concentration in Balb-C mouse at 2 mg/kg, iv administered as bolus dose measured after 2.5 mins by LC-MS analysis; format: ADME, organism-based
[40] = Half life in Balb-C mouse at 2 mg/kg, iv administered as bolus dose by LC-MS method; format: ADME, organism-based; conditions: in vivo

For `COc1cccc(N/C(=N/C#N)NCC23CC4CC(CC(C4)C2)C3)c1`, the pIC50 [1] was 7.24.
In the case of `COc1ccc(CN/C(=N/C#N)NCC23CC4CC(CC(C4)C2)C3)cc1`, the pIC50 [1] was < 5.00.
For `N#C/N=C(\NCC12CC3CC(CC(C3)C1)C2)Nc1ccc(F)cc1`, the pIC50 [1] was 6.76.
Work on `c1cnc2cc3c(cc2n1)[C@@H]1CNC[C@H]3C1` [VARENICLINE] yielded a half-life [2] of 84 min.
Work on `N#C/N=C(/NCc1cccc(F)c1)NCC12CC3CC(CC(C3)C1)C2` yielded a pIC50 [1] of 6.15, a pIC50 [3] of 6.88 and a Ratio IC50 [4] of 5.4.
Molecule `N#C/N=C(/NCCc1ccccc1)NCC12CC3CC(CC(C3)C1)C2` has a pIC50 [1] of 5.39.
Molecule `C[C@H](N/C(=N/C#N)Nc1cccc2ncccc12)c1ccccc1` has a pIC50 [5] of 7.96 to 8.05.
In the case of `N#C/N=C(\NCCC12CC3CC(CC(C3)C1)C2)Nc1ccccc1`, the pIC50 [1] was < 5.00.
`O=C(CC12CC3CC(CC(C3)C1)C2)Nc1ccc2[nH]ncc2c1` showed a half-life [6] of 60 min and a CL [7] of 47 mL/min/kg.
`COc1ccc(N/C(=N/C#N)NCC23CC4CC(CC(C4)C2)C3)cc1` gave a pIC50 [1] of 6.25.
Molecule `N#C/N=C(\NCC12CC3CC(CC(C3)C1)C2)Nc1cccc(F)c1` has a pIC50 [1] of 6.73.
`N#C/N=C(/NCc1cccnc1)NCC12CC3CC(CC(C3)C1)C2` showed a concentration at 76 min [8] of 12 ng/mL, a concentration at 0.35 h [9] of 44 ng/mL and a Cmax [10] of 912 nM. The concentration at 58 min [11] was 52 ng/mL, the pIC50 [1] was 7.16 and the Activity [12] was “Non-Toxic”. For the same molecule, the Vd [13] was 2.2 L/kg, the Activity [14] was “Non-Toxic” and the MRT inf [15] was 18.6 min. For the same molecule, the concentration at 0.25 h [16] was 461 ng/mL, the concentration at 0.1 h [17] was 766 ng/mL and the concentration at 348 s [18] was 523 ng/mL. For the same molecule, the pIC50 [3] was 7.40, the Activity [19] was “Non-Toxic” and the concentration at 0.55 h [20] was 23 ng/mL. It also gave a concentration at 62 min [21] of 5.8 ng/mL, a Ratio IC50 [4] of 1.7 and a Tmax [22] of 20 to 30 min. It also gave a concentration at 0.65 h [23] of 160 ng/mL, a concentration at 10 min [24] of 365 ng/mL and a clearance [25] of 117 mL/min/kg. The Cmax [26] was 3650 nM, the concentration at 23 min [27] was 220 ng/mL and the AUC(0-inf) [28] was 0.88 µM·h. The concentration at 0.168333 h [29] was 332 ng/mL, the Activity [30] was “Active” and the concentration at 132 s [31] was 687 ng/mL. The concentration at 0.5 h [32] was 39 ng/mL, the concentration at 1.05 h [33] was 31 ng/mL and the k el [34] was 0.000886 s⁻¹. For the same molecule, the solubility [35] was “Insoluble”, the AUC(0-t) [36] was 0.87 µM·h and the Tmax [37] was 2.5 min. For the same molecule, the concentration at 37 min [38] was 123 ng/mL, the concentration at 2.5 min [39] was 1180 ng/mL and the half-life [40] was 13.2 min.
For `N#C/N=C(\NCC12CC3CC(CC(C3)C1)C2)Nc1ccccc1`, the pIC50 [1] was 7.00.
`N#C/N=C(/NCc1ccccn1)NCC12CC3CC(CC(C3)C1)C2` gave a pIC50 [1] of 6.63, a pIC50 [3] of 6.86 and a Ratio IC50 [4] of 1.7.
With `N#C/N=C(/NCc1ccccc1)NC12CC3CC(CC(C3)C1)C2` the pIC50 [1] was < 5.00.
